Results as given in publication PMC6698739, “Structural intermediates of a DNA–ligase complex illuminate the role of the catalytic metal ion and mechanism of phosphodiester bond formation” (Nucleic Acids Research, 2019).

Target: T1, Pmar-Lig (Prochlorococcus marinus, UniProt A0A0A2ACP7)
T1 construct: gene EU96_0746; codon-optimised synthetic gene in pDEST17; tag removed; three domains (DB, AD, OB); 432 residues modelled in wild-type crystals
Experiment: X-ray crystal structure, […] A
Assay type: binding
Settings: post-step 3 complex with sealed DNA product; partial occupancy (adenine nucleobase 0.75, phosphate 0.5); some residual covalent DNA-adenylate; pH 6.5 crystallisation

T1 sequence (A0A0A2ACP7 entry or part of it): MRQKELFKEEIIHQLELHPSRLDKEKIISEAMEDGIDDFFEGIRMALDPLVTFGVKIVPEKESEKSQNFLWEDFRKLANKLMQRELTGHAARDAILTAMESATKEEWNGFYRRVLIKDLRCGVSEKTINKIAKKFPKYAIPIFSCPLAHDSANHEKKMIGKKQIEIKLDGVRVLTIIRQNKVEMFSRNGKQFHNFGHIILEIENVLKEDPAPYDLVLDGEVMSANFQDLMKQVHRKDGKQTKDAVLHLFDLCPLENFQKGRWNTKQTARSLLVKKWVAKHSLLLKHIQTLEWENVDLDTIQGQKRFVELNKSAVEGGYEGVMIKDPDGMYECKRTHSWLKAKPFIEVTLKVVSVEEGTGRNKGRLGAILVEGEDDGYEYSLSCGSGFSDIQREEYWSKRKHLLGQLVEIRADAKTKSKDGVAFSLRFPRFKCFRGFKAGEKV

Nc1ncnc2c1ncn2[C@@H]1O[C@H](COP(=O)(O)O)[C@@H](O)[C@H]1O [AMP]
X-ray crystal structure, 1.99 A: with the DNA product retained in the active site, as well as residual AMP
